Earlier results as cited in US11191839B2, “Composition for treatment of infertility in a subject” (priority 2015, dated 2021).

Test system: couples with unexplained infertility
Conditions: pertubation with low doses before artificial insemination; Edelstam et al. 2008

CCN(CC)CC(=O)Nc1c(C)cccc1C [lidocaine, Lidocaine]
Pregnancy rates: increase pregnancy rates
